Laboratory results from US20090304827A1, “Combinations of Ingredients Having Synergistic Anti-Inflammatory Effects” (priority 2008, published 2009).

Key:
iNOS = details: cited from earlier work
[1] = system: LPS-induced PGE2 production; details: cited from earlier work
[2] = system: LPS-induced NO production; details: cited from earlier work
[3] = system: RAW 264.7 cells activated with bacterial lipopolysaccharide; details: LPS 50 ng ml^−1; cited from earlier work
[4] = system: LPS-induced nitrite (NO) generation on murine macrophage RAW264.7 cells; test: Nitrite assay: LPS-induced nitrite (NO) generation, Griess reaction; assay type: cell-based; details: either singly or in combination
Text: The term “synergy” refers to the phenomenon in which the combination of two or more discrete agents acting together can cause a greater response than simply the sum of the individual effects of each agent if they were used separately. It is not uncommon to find the presence of two or more chemical constituents or herbs on an organism to be greater than the effect of each chemical constituent or herb individually, or the sum of the individual effects. […]
The nitrite concentration in the medium was measured as an indicator of NO production, a common phenomenon of the inflammation process, according to the Griess reaction. […] One hundred microliters of supernatant was mixed with the same volume of Griess reagent (1% sulfanilamide in 5% phosphoric acid and 0.1% naphthylethylenediamine dihydrocholide in water); absorbance of the mixture at 550 nm was determined with an ELISA plate reader (Dynatech MR-7000; Dynatech Laboratories Inc.).
Various combinations of herbal extracts were investigated for anti-inflammatory effect using nitrite assay. For the study, RAW 264.7 cells were treated with LPS (10 μg/mL) to induce nitrite production, various concentrations and combinations thereof were added, and the nitrite concentration in the medium was measured as an indicator of the inhibition of NO production, a common phenomenon of the inflammation process.

Compound | iNOS enzyme activity (iNOS) | COX-2 gene expression / activation [1] | LPS-induced PGE2 production [1] | LPS-induced NO production [2] | iNOS gene expression / activation [2] | NO generation in activated macrophages (nitrite released into the culture medium) [3] | amount of cytosolic iNOS protein and steady state mRNA levels [3] | anti-inflammatory property (inhibition of NO production) [4]
O=C(O)[C@H]1O[C@@H](Oc2cc3oc(-c4ccccc4)cc(=O)c3c(O)c2O)[C@H](O)[C@@H](O)[C@@H]1O [Baicalin] | did not inhibit | not | not | significantly inhibited | significantly inhibited |  |  | 
COc1c(O)cc2oc(-c3ccccc3)cc(=O)c2c1O [Oroxylin A] |  | blocking | potent inhibitor | potent inhibitor | blocking |  |  | 
Oc1ccc(C=Cc2cc(O)cc(O)c2)cc1 [Resveratrol] |  |  |  |  |  | strongly to inhibit | strongly reduced | 
O=C1O[C@H]([C@@H](O)CO)C(O)=C1O [Vitamin C, L-ascorbate] |  |  |  |  |  |  |  | did not show any noticeable anti-inflammatory property
O=c1cc(-c2ccccc2)oc2cc(O)c(O)c(O)c12 [baicalein] | did not inhibit | not | not | significantly inhibited | significantly inhibited |  |  | 
COc1c(O)cc(O)c2c(=O)cc(-c3ccccc3)oc12 [wogonin] | did not inhibit | inhibited | inhibited | significantly inhibited | significantly inhibited |  |  | 
Tocopherol [vitamin E] |  |  |  |  |  |  |  | did not show any noticeable anti-inflammatory property
